Results: patent US12648941B2, “Piperidine urea derivatives for use as inotropic agents” (Helsinn Healthcare SA, priority 2021, dated 2026)
Where two headings read alike, the source gives them in different places.

Tests used:
Type in all cases: in vivo, human
[1] = tested on: adrenocorticotropic hormone (ACTH); assay: Phase 1 SAD pharmacodynamics, serum ACTH (ELISA); settings: higher doses; ACTH determined only after 1.0 mg
Method: (§1) Blood samples for determination of growth hormone (GH), insulin-like growth factor-1 (IGF-1), adrenocorticotropic hormone (ACTH), prolactin, cortisol and aldosterone in serum at pre-dose and 0.5, 1, 2, 3, 4, 6 and 24 hours post-dose were collected by venous puncture. All biomarkers were determined using enzyme linked immunosorbent assays (ELISA). Simplified nutritional appetite questionnaire based on appetite assessments at Day −1 after dinner, and on Day 1 pre-dose, 1, 2, 4, 8, and 24 hours after dosing. Stool diary starting on Day 1 until discharge on Day 4.

[2] = tested on: aldosterone; assay: Phase 1 SAD pharmacodynamics, serum aldosterone (ELISA)
Method: as §1

[3] = Phase 1 SAD, stool diary; settings: between dose groups
Method: as §1

[4] = tested on: cortisol; assay: Phase 1 SAD pharmacodynamics, serum cortisol (ELISA)
Method: as §1

[5] = tested on: prolactin; assay: Phase 1 SAD pharmacodynamics, serum prolactin (ELISA)
Method: as §1

[6] = Phase 1 single ascending dose study, plasma pharmacokinetics; settings: for AUClast/D / Cmax/D / AUC∞/D / CL/F / λz / AUC(0-t) / Cmax / AUC(0-inf) / MRT / Vd/F: geometric mean; for AUC(0-t): po; for Vd/F: read-out: Vz/F
Method: Single-center, randomized, double-blind, placebo-controlled, single ascending dose (SAD) study.
Screening examinations were performed within 28 days prior to dosing. Eligible subjects returned to the study center in the morning of Day-1 and remained in-patient until discharge at 72 hours after dosing (morning of Day 4) if there were no safety issues. The oral dose was administered in the morning of Day 1. Subjects returned to the clinic 7 days after treatment, in the morning of Day 8 (±1 day), for the safety assessments.
Healthy male non-smoking subjects, between 18 and 50 years of age inclusive, with a body mass index (BMI) between 18.5 and 29.9 kg/m^2 inclusive. Cohorts of 8 subjects per dose step were planned. Cohort 1 (10 mg or placebo) was stopped after dosing of 4 subjects. Cohorts 2 to 4 consisted of 8 subjects each, i.e., a total number of 28 subjects were randomized and completed the study. There were no withdrawals.
HM01 HCl powder in gelatine capsules. Capsules with the strength of 0.1 mg and 1.0 mg and 10 mg for cohort 1 were available. • Cohort 1:10 mg HM01 • Cohort 2:0.1 mg HM01 Cohort 3:0.3 mg HM01 Cohort 4:1.0 mg HM01
Subjects were dosed in a fasted state (no food for at least 8 hours). Access to food was restricted until 4 hours after dosing. Capsules were administered orally together with 240 mL water.
Blood samples for analytical assay of HM01 and the 3 major metabolites (M2, M6 and M9) were collected at pre-dose (within 60 minutes prior to drug administration), and at 0.25, 0.5, 1, 1.5, 2, 3, 4, 6, 8, 12, 16, 24, 30, 36, 48, 60 and 72 hours post dose (18 samples). Urine was collected for 24 hours after dosing. Blood and urine samples were analyzed for HM01 and its metabolites concentrations using validated LC-MS/MS methods.
PK parameters estimated included Cmax (maximum observed concentration), Cmax/D (Cmax per dose unit), tmax (peak time), Clast (last measurable concentration above the lower limit of quantification), tlast (time of Clast), AUC(0-24) and AUClast (area under the plasma concentration-time curve from time zero to 24 hours and to the last measurable concentration, tlast, respectively), AUClast/D (AUClast per dose unit), AUC∞(area under the plasma concentration-time curve from time zero to infinity), AUC∞(/D (AUC∞ per dose unit), t1/2 (apparent terminal half-life), CL/F (systemic clearance after extravascular administration, only for the parent drug), Vz/F (apparent volume of distribution after extravascular administration, only for the parent drug), MRT (mean residence time).

[7] = 0.1 mg HM01 single oral dose, N = 6
[8] = 0.3 mg HM01 single oral dose, N = 6
[9] = 0.3 mg HM01 single oral dose, n = 5
[10] = 1.0 mg HM01 single oral dose, N = 6
[11] = 10 mg HM01 single oral dose, N = 3
[12] = male, human, plasma, 0.3 mg HM01 single oral dose, n = 5
[13] = male, human, plasma, 1.0 mg HM01 single oral dose, N = 6
[14] = male, human, plasma, 10 mg HM01 single oral dose, N = 3

AUClast/D [6, 7]: 4.899 (h * ng/mL)/mg
Cmax/D [6, 7]: 1.357 (ng/mL)/mg
tlast ([6]; 0.1 mg HM01 single oral dose, N = 6, median): 8.00 h
AUClast/D [6, 8]: 9.396 (h * ng/mL)/mg
Cmax/D [6, 8]: 0.9554 (ng/mL)/mg
tlast ([6]; 0.3 mg HM01 single oral dose, N = 6, median): 16.00 h
AUC∞/D [6, 9]: 15.19 (h * ng/mL)/mg
CL/F [6, 9]: 65.8 L/h
λz [6, 9]: 0.0821 h⁻¹
AUClast/D [6, 10]: 14.71 (h * ng/mL)/mg
AUC∞/D [6, 10]: 16.94 (h * ng/mL)/mg
CL/F [6, 10]: 59.0 L/h
Cmax/D [6, 10]: 1.280 (ng/mL)/mg
λz [6, 10]: 0.0648 h⁻¹
tlast ([6]; 1.0 mg HM01 single oral dose, N = 6, median): 36.00 h
AUClast/D [6, 11]: 17.61 (h * ng/mL)/mg
AUC∞/D [6, 11]: 17.88 (h * ng/mL)/mg
CL/F [6, 11]: 55.9 L/h
Cmax/D [6, 11]: 1.528 (ng/mL)/mg
λz [6, 11]: 0.0646 h⁻¹
tlast ([6]; 10 mg HM01 single oral dose, N = 3, median): 72.00 h
half-life ([6]; male, human, plasma, oral, similar for all doses, read-out: arithmetic mean half-life of HM01): 9 to 11 h
clearance ([6]; male, human, plasma, oral, similar for all doses, read-out: geometric mean clearance of HM01): 932 to 1100 mL/min
Tmax ([6]; male, human, plasma, oral, similar for all doses, read-out: median tmax of HM01): 3 to 4 h
apparent volume of distribution (Vz/F) ([6]; male, human, plasma, oral, similar for all doses, read-out: volume of distribution of HM01): 801 to 911 L
AUC(0-t) ([6]; male, human, plasma, 0.1 mg, 0.1 mg HM01 single oral dose, fasted healthy males, N = 6, read-out: AUClast): 0.49 ng·h/mL
AUC(0-t) ([6]; male, human, plasma, 0.3 mg, 0.3 mg HM01 single oral dose, N = 6, read-out: AUClast): 2.82 ng·h/mL
AUC(0-t) ([6]; male, human, plasma, 0.3 mg, 0.3 mg HM01 single oral dose, fasted healthy males, N = 6, read-out: AUC0-24h): 3.75 ng·h/mL
AUC(0-t) ([6]; male, human, plasma, 1 mg, 1.0 mg HM01 single oral dose, N = 6, read-out: AUClast): 14.7 ng·h/mL
AUC(0-t) ([6]; male, human, plasma, 1 mg, 1.0 mg HM01 single oral dose, fasted healthy males, N = 6, read-out: AUC0-24h): 13.4 ng·h/mL
AUC(0-t) ([6]; male, human, plasma, 10 mg, 10 mg HM01 single oral dose, N = 3, read-out: AUClast): 176 ng·h/mL
AUC(0-t) ([6]; male, human, plasma, 10 mg, 10 mg HM01 single oral dose, fasted healthy males, N = 3, read-out: AUC0-24h): 149 ng·h/mL
Cmax ([6]; male, human, plasma, 0.1 mg HM01 single oral dose, N = 6): 0.136 ng/mL
Tmax ([6]; male, human, plasma, 0.1 mg HM01 single oral dose, N = 6, median, read-out: tmax): 3 h
Cmax ([6]; male, human, plasma, 0.3 mg HM01 single oral dose, N = 6): 0.287 ng/mL
Tmax ([6]; male, human, plasma, 0.3 mg HM01 single oral dose, N = 6, median, read-out: tmax): 4 h
half-life ([6]; male, human, plasma, 0.3 mg HM01 single oral dose, n = 5, arithmetic mean, read-out: t1/2 (converted)): 8.83 h
AUC(0-inf) [6, 12]: 4.56 ng·h/mL
MRT [6, 12]: 14.4 h
Vd/F [6, 12]: 801 L
half-life ([6]; male, human, plasma, 1.0 mg HM01 single oral dose, N = 6, arithmetic mean, read-out: t1/2 (converted)): 11 h
AUC(0-inf) [6, 13]: 16.9 ng·h/mL
Cmax [6, 13]: 1.28 ng/mL
MRT [6, 13]: 15.3 h
Vd/F [6, 13]: 911 L
Tmax ([6]; male, human, plasma, 1.0 mg HM01 single oral dose, N = 6, median, read-out: tmax): 4 h
half-life ([6]; male, human, plasma, 10 mg HM01 single oral dose, N = 3, arithmetic mean, read-out: t1/2 (converted)): 10.9 h
AUC(0-inf) [6, 14]: 179 ng·h/mL
Cmax [6, 14]: 15.3 ng/mL
MRT [6, 14]: 14.2 h
Vd/F [6, 14]: 866 L
Tmax ([6]; male, human, plasma, 10 mg HM01 single oral dose, N = 3, median, read-out: tmax): 3 h
dose dependence of AUC∞ ([6]; single oral doses of HM01): dose proportional increase
dose dependence of max ([6]; single oral doses of HM01): dose proportional increase
SMILES: COc1ccc([C@H](C)NC(=O)N(C)[C@@H]2CCN(C)CC2(C)C)c(Cl)c1Cl.Cl [AC01/HM01, 1-[(1S)-1-(2,3-dichloro-4-methoxyphenyl)ethyl]-3-methyl-3-[(4R)-1-methyl-3,3-dimethyl-4-piperidyl]-urea]
concentrations of ACTH [1]: rapidly increased above baseline values
concentrations of aldosterone ([2]; 1.0 and 10 mg HM01): rapidly increased above baseline values
aldosterone increase, comparison of doses ([2]; 1.0 vs 10 mg): similar
number of bowel movements per day and number of subjects with bowel movement [3]: no dose-related differences
concentrations of cortisol ([4]; 1.0 and 10 mg HM01): rapidly increased above baseline values
cortisol increase, comparison of doses ([4]; 1.0 vs 10 mg): similar
prolactin increase, comparison of doses ([5]; 10 mg vs 1.0 mg): higher after 10 mg compared to 1.0 mg
concentrations of prolactin ([5]; 1.0 and 10 mg HM01): rapidly increased above baseline values
